# Active and inactive are the calls of the source. No cut-off for these calls is given here.
# Experiments:
# [1] = Binding affinity to synthetic d(5'-GCGAGTACTCGC-3') DNA sequence assessed as change in heat by ITC assay
# [2] = Binding affinity to synthetic d(5'-GCGACTAGTCGC-3') DNA sequence assessed as change in heat by ITC assay
# [3] = Binding affinity to synthetic d(CGACTAGTCG)2 DNA sequence by NMR analysis
Activity [1],Activity [2],Activity [3],Structure (SMILES)
inactive,inactive,–,CC(C)c1sc(NC(=O)CCCN(C)C)nc1C(=O)Nc1cc(C(=O)Nc2cc(C(N)=O)n(C)c2)n(C)c1
–,–,Active,CC(C)c1sc(NC(=O)c2cc(NC(=O)c3cc(NC=O)cn3C)cn2C)nc1C(=O)NCCCN(C)C

# — ChEMBL document CHEMBL4414633, “Investigation of the Factors That Dictate the Preferred Orientation of Lexitropsins in the Minor Groove of DNA” (J Med Chem, 2019)
